Blank lines part the entries; values can stand above or below the molecule they belong to.
Tests used:
Format in all cases: biochemical
IP6K3 = IP6K3 (Homo sapiens (Human), UniProt Q96PC2); experiment: Enzyme-coupled assay of IP6K3 activity (Dipp1-coupled, malachite green Pi release)
IP6K2 = IP6K2 (Homo sapiens (Human), UniProt Q9UHH9); experiment: Enzyme-coupled assay of IP6K2 activity (Dipp1-coupled, malachite green Pi release)
Description: (§1) […] The cells were disrupted using a constant cell disruption system (Constant Systems) under 20 kPsi.
(§2) Pi release was determined with a malachite green colorimetric assay.^45 Where indicated, TNP (Cayman Chemical) was added to the assays (FIG. 2A-E).

IP6K1 = IP6K1 (Homo sapiens (Human), UniProt Q92551); experiment: Enzyme-coupled assay of IP6K1 activity (Dipp1-coupled, malachite green Pi release)
Description: as §1, §2

IPMK = IPMK (Homo sapiens (Human), UniProt Q8NFU5); experiment: Enzyme-coupled assay, IPMK IC50
[1] = determined from enzyme-coupled assays

Sequence of IP6K3 (Q96PC2 whole entry): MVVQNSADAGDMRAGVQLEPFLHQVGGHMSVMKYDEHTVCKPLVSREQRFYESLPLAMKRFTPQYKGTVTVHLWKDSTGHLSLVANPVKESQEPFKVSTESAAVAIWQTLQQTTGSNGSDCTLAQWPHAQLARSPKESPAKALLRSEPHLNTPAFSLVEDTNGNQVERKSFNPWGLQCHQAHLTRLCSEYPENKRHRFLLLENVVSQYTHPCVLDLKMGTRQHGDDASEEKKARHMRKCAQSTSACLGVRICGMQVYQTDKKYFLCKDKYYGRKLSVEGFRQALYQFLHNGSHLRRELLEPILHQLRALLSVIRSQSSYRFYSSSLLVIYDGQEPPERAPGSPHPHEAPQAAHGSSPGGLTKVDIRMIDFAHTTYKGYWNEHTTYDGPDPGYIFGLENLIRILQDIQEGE
Sequence of IPMK (Q8NFU5 whole entry, species assumed): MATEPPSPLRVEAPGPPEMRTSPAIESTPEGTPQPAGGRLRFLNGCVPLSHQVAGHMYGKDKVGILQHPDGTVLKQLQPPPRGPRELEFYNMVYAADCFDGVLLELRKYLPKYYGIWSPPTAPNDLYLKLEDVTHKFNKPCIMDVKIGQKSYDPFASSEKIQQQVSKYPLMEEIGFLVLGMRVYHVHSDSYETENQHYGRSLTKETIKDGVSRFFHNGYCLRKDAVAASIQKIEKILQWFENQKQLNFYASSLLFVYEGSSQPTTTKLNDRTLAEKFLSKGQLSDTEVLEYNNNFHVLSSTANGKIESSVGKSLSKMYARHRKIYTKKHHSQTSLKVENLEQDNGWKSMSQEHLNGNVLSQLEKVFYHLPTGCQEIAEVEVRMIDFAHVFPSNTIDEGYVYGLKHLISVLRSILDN
Sequence of IP6K2 (Q9UHH9 whole entry): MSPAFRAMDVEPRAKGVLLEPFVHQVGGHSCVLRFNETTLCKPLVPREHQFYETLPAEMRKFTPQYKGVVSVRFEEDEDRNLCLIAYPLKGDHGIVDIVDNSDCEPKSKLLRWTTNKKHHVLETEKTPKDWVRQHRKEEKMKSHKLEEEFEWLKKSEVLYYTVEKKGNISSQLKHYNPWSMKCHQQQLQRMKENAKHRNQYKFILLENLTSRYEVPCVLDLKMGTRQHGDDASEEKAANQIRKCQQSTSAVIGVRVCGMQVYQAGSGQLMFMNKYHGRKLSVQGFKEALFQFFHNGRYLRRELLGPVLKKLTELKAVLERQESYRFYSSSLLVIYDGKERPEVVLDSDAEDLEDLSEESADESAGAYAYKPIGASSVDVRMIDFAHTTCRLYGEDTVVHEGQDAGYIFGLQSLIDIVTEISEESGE
Sequence of IP6K1 (Q92551 whole entry): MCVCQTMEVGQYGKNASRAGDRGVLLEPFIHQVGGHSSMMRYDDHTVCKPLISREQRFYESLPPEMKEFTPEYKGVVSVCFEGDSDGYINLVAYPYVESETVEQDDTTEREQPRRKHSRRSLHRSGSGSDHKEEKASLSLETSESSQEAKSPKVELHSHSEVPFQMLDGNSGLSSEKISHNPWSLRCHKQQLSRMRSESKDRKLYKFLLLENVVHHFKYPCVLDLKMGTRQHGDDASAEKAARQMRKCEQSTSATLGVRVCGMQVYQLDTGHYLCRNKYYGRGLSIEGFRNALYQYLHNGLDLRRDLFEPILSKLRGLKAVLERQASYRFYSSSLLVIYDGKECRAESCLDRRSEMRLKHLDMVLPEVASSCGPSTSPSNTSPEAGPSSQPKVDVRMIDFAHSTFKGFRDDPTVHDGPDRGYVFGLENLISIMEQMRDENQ

- IC50 (IP6K3; enzyme-coupled assay, Table 6): 100 to 1000 nM
- IC50 (IP6K2; enzyme-coupled assay, Table 6): 1000 to 100000 nM
- IC50 (IP6K1; enzyme-coupled assay, Table 6): 1000 to 100000 nM
SMILES: O=C(O)c1ccc2onc(-c3ccccc3)c2c1 [Cmpd 91]

- IC50 (IP6K3; [1]): 100 to 1000 nM
- IC50 (IP6K2; [1]): 100 to 1000 nM
- IC50 (IPMK; [1]): 10 to 100 nM
- IC50 (IP6K1; [1]): 100 to 1000 nM
SMILES: O=c1[nH]c(-c2ccc3noc(-c4ccccc4)c3c2)no1 [Cmpd 124]

- IP6K3 IC50 (IP6K3; enzyme-coupled assay, Table 1): −
SMILES: CN(C)C(=O)/C=C/c1ccc2noc(-c3ccccc3)c2c1 [Compound 9]

- IC50 (IP6K3; enzyme-coupled assay, Table 1): 1000 to 100000 nM
- IC50 (IP6K1; enzyme-coupled assay, Table 1): 100 to 1000 nM
SMILES: O=C(O)/C=C/c1ccc2noc(-c3ccccc3)c2c1 [Compound 10]

- IC50 (IP6K3; enzyme-coupled assay, Table 1): 100 to 1000 nM
- IC50 (IP6K2; enzyme-coupled assay, Table 1): 100 to 1000 nM
- IC50 (IP6K1; enzyme-coupled assay, Table 1): 100 to 1000 nM
SMILES: Cc1cc(C)cc(-c2onc3ccc(/C=C/C(=O)O)cc23)c1 [Compound 11]

- IC50 (IP6K3; enzyme-coupled assay, Table 1): 1000 to 100000 nM
SMILES: O=C(O)/C=C/c1ccc2noc(-c3ccc(OC(F)(F)F)cc3)c2c1 [Compound 14]

- IC50 (IP6K3; enzyme-coupled assay, Table 1): 100 to 1000 nM
SMILES: O=C(O)/C=C/c1ccc2noc(-c3ccc(Oc4ccccc4)cc3)c2c1 [Compound 15]

- IC50 (IP6K3; enzyme-coupled assay, Table 1): 100 to 1000 nM
SMILES: O=C(O)/C=C/c1ccc2noc(-c3ccc(-c4ccccc4)cc3)c2c1 [Compound 16]

- IC50 (IP6K3; enzyme-coupled assay, Table 2): 1000 to 100000 nM
- IPMK IC50 (IPMK; enzyme-coupled assay, Table 2): −
SMILES: Cc1cccc(-c2onc3ccc(C(=O)O)cc23)c1 [Compound 18, 3-(m-tolyl)benzo[c]isoxazole-5-carboxylic acid]

- IC50 (IP6K3; enzyme-coupled assay, Table 2): 1000 to 100000 nM
- IC50 (IP6K2; enzyme-coupled assay, Table 2): 100 to 1000 nM
- IPMK IC50 (IPMK; enzyme-coupled assay, Table 2): −
- IC50 (IP6K1; enzyme-coupled assay, Table 2): 1000 to 100000 nM
SMILES: CC(C)NC(=O)c1ccc2noc(-c3ccccc3)c2c1 [Compound 22]

- IC50 (IP6K3; enzyme-coupled assay, Table 2): 100 to 1000 nM
- IC50 (IP6K2; enzyme-coupled assay, Table 2): 100 to 1000 nM
- IC50 (IPMK; enzyme-coupled assay, Table 2): 10 to 100 nM
- IC50 (IP6K1; enzyme-coupled assay, Table 2): 10 to 100 nM
SMILES: CNC(=O)c1ccc2noc(-c3ccc(-c4ccccc4)cc3)c2c1 [Compound 26]

- IC50 (IP6K3; enzyme-coupled assay, Table 2): 100 to 1000 nM
- IC50 (IPMK; enzyme-coupled assay, Table 2): 10 to 100 nM
SMILES: O=C(O)c1ccc2noc(-c3cccc(Oc4ccccc4)c3)c2c1 [Compound 33]

- IC50 (IP6K3; enzyme-coupled assay, Table 2): 100 to 1000 nM
- IC50 (IP6K2; enzyme-coupled assay, Table 2): 100 to 1000 nM
- IC50 (IPMK; enzyme-coupled assay, Table 2): 10 to 100 nM
SMILES: O=C(O)c1ccc2noc(-c3cccc(-c4ccccc4)c3)c2c1 [Compound 34]

The next lines start with the molecule.

SMILES: O=c1[nH]c(-c2ccc3noc(-c4ccc(-c5ccccc5)cc4)c3c2)no1 [Cmpd 125]
- IC50 (IP6K3; [1]): < 10 nM
- IC50 (IP6K2; [1]): 10 to 100 nM
- IC50 (IPMK; [1]): < 10 nM
- IC50 (IP6K1; [1]): 10 to 100 nM

SMILES: O=C(Nc1ccc(-c2onc3ccc(-c4noc(=O)[nH]4)cc23)cc1)C1CC1 [Cmpd 126]
- IC50 (IP6K3; [1]): 10 to 100 nM
- IC50 (IP6K2; [1]): 100 to 1000 nM
- IC50 (IPMK; [1]): 10 to 100 nM
- IC50 (IP6K1; [1]): 100 to 1000 nM

SMILES: Cc1cc(C)cc(-c2onc3ccc([C@@H]4C[C@H]4C(=O)O)cc23)c1 [Compound 17]
- IC50 (IP6K3; enzyme-coupled assay, Table 1): 1000 to 100000 nM
- IC50 (IP6K2; enzyme-coupled assay, Table 1): 10 to 100 nM
- IC50 (IP6K1; enzyme-coupled assay, Table 1): 10 to 100 nM

SMILES: Cc1cc(C)cc(-c2onc3ccc(C(=O)O)cc23)c1 [Compound 19]
- IC50 (IP6K3; enzyme-coupled assay, Table 2): 1000 to 100000 nM
- IC50 (IPMK; enzyme-coupled assay, Table 2): 100 to 1000 nM

SMILES: O=C(O)c1ccc2noc(-c3ccc(Oc4ccccc4)cc3)c2c1 [Compound 24]
- IC50 (IP6K3; enzyme-coupled assay, Table 2): 100 to 1000 nM
- IC50 (IPMK; enzyme-coupled assay, Table 2): 100 to 1000 nM

SMILES: O=C(O)c1ccc2noc(-c3ccc(Oc4ncc(Cl)cc4Cl)cc3)c2c1 [Compound 28]
- IC50 (IP6K3; enzyme-coupled assay, Table 2): 1000 to 100000 nM
- IC50 (IPMK; enzyme-coupled assay, Table 2): 1000 to 100000 nM
- IC50 (IP6K1; enzyme-coupled assay, Table 2): 100 to 1000 nM

SMILES: O=C(O)c1ccc2noc(-c3cccc(Oc4ccccn4)c3)c2c1 [Compound 29]
- IC50 (IP6K3; enzyme-coupled assay, Table 2): 1000 to 100000 nM
- IC50 (IPMK; enzyme-coupled assay, Table 2): 1000 to 100000 nM

SMILES: O=C(O)c1ccc2noc(-c3cccc(Oc4ncc(Cl)cc4Cl)c3)c2c1 [Compound 30]
- IC50 (IP6K3; enzyme-coupled assay, Table 2): 1000 to 100000 nM
- IC50 (IPMK; enzyme-coupled assay, Table 2): 10 to 100 nM

SMILES: O=C(O)c1ccc2noc(-c3ccc(NC(=O)C4CC4)cc3)c2c1 [Compound 35]
- IC50 (IP6K3; enzyme-coupled assay, Table 2): 100 to 1000 nM
- IC50 (IP6K2; enzyme-coupled assay, Table 2): 1000 to 100000 nM
- IC50 (IPMK; enzyme-coupled assay, Table 2): 1000 to 100000 nM
- IC50 (IP6K1; enzyme-coupled assay, Table 2): 1000 to 100000 nM

SMILES: CC(C)C(=O)Nc1ccc(-c2onc3ccc(C(=O)O)cc23)cc1 [Compound 36]
- IC50 (IP6K3; enzyme-coupled assay, Table 2): 100 to 1000 nM
- IC50 (IP6K2; enzyme-coupled assay, Table 2): 100 to 1000 nM
- IC50 (IPMK; enzyme-coupled assay, Table 2): 1000 to 100000 nM

SMILES: O=C(CC1CCOCC1)Nc1ccc(-c2onc3ccc(C(=O)O)cc23)cc1 [Compound 37]
- IC50 (IP6K3; enzyme-coupled assay, Table 2): 1000 to 100000 nM
- IC50 (IP6K2; enzyme-coupled assay, Table 2): 1000 to 100000 nM
- IC50 (IPMK; enzyme-coupled assay, Table 2): 1000 to 100000 nM
- IC50 (IP6K1; enzyme-coupled assay, Table 2): 1000 to 100000 nM

SMILES: CC(C)NC(=O)c1ccc(-c2onc3ccc(C(=O)O)cc23)cc1 [Compound 38]
- IC50 (IP6K3; enzyme-coupled assay, Table 2): 100 to 1000 nM
- IC50 (IP6K2; enzyme-coupled assay, Table 2): 100 to 1000 nM
- IC50 (IPMK; enzyme-coupled assay, Table 2): 1000 to 100000 nM

SMILES: O=C(O)c1ccc2noc(-c3ccc(C(=O)NCCC4CC4)cc3)c2c1 [Compound 39]
- IC50 (IP6K3; enzyme-coupled assay, Table 2): 100 to 1000 nM
- IC50 (IP6K2; enzyme-coupled assay, Table 2): 100 to 1000 nM
- IC50 (IPMK; enzyme-coupled assay, Table 2): 100 to 1000 nM
- IC50 (IP6K1; enzyme-coupled assay, Table 2): 100 to 1000 nM

SMILES: O=C(O)c1ccc2noc(-c3cccc(NC(=O)C4CC4)c3)c2c1 [Compound 42]
- IC50 (IP6K3; enzyme-coupled assay, Table 2): 1000 to 100000 nM
- IC50 (IPMK; enzyme-coupled assay, Table 2): 10 to 100 nM

SMILES: O=C(O)c1ccc2noc(-c3ccc(NC(=O)C4CCCC4)cc3)c2c1 [Compound 43]
- IC50 (IP6K3; enzyme-coupled assay, Table 2): 100 to 1000 nM
- IC50 (IPMK; enzyme-coupled assay, Table 2): 1000 to 100000 nM

Reference: US20250154115A1, “ARYLBENZOISOXAZOLE COMPOUNDS AS IP6K AND IPMK INHIBITORS AND METHODS OF USE THEREOF” (THE UNIVERSITY OF NORTH CAROLINA AT CHAPEL HILL, priority 2022, published 2025)
